Measured values: US20090155270A1, “CASPASE INHIBITORS, […] 3 INHIBITORS, FOR THE TREATMENT OF INFLUENZA” (priority 2003, published 2009)
Residues, ends and D or L forms follow the SMILES beside them. *: point of attachment. Cbz = O=C(OCc1ccccc1)*; CH2F = FC*

What was measured:
[1] = system: influenza A virus strain Bratislava/79 (fowl plague virus, FPV); assay type: cell-based
[2] = system: influenza virus ribonucleic protein complexes (RNP's); assay type: cell-based, influenza A virus
[3] = system: reconstituted RNP complexes (PB2, PB1, PA, NP); assay type: cell-based, influenza A virus
[4] = system: influenza A virus strain fowl plague virus (FPV); assay type: cell-based
[5] = system: Raf/MEK/ERK signal pathway (ERK); assay type: cell-based, homo sapiens
[6] = molecular target: caspase-3 (Homo sapiens, UniProt P42574)
[7] = system: influenza A virus nucleoprotein (NP); assay type: cell-based
[8] = system: early or late viral proteins (NS1, NP, M1); assay type: cell-based, influenza A virus
[9] = molecular target: T1, caspase-3 (Canis lupus familiaris, UniProt Q8MKI5); assay type: cell-based
T1 construct: endogenous in cells; host or cells: MDCK cells infected with influenza A virus FPV
T1 sequence (Q8MKI5 29-175 limits assumed): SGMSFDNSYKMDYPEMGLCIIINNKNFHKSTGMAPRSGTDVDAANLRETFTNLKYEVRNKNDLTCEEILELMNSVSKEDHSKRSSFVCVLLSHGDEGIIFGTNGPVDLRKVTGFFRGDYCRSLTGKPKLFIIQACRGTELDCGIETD
T1 sequence (Q8MKI5 176-277 limits assumed): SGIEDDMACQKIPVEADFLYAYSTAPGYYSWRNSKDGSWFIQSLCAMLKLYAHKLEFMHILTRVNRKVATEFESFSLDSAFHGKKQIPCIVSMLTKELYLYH

[10] = system: influenza A virus strain fowl plague virus (FPV); assay type: cell-based; remark: listed apart in the source
[11] = system: influenza A virus strain fowl plague virus (FPV); assay type: cell-based; remark: listed apart in the source

COC(=O)C[C@H](NC(=O)[C@H](C)NC(=O)[C@@H](NC(=O)OCc1ccccc1)C(C)C)C(=O)CF [Z-VAD-FMK] (Cbz-Val-Ala-Asp(OMe)-CH2F)
inhibition of the virus multiplication [1]: same efficiency

CC(NC(=O)[C@H](Cc1ccccc1)NC(=O)OCc1ccccc1)C(=O)CF (some centres unmarked) [Z-FA-FMK]
migration of the RNP's out of the cell nucleus [2]: not | effect on virus multiplication [1]: did not show any effect

N#CC(=C(/N)Sc1ccccc1N)/C(C#N)=C(\N)Sc1ccccc1N [U0126]
migration of the RNP's out of the cell nucleus [2]: efficiently be inhibited | prevention of staurosporine-induced bleeding of GFP and RNP complexes out of the cell nucleus [3]: not | effect on the virus multiplication (titers of descendant viruses) [4]: again reduced | virus-induced activity of ERK [5]: efficiently inhibited | cleavage of the caspase substrate PARP [6]: did not lead to a modified cleavage of PARP

CN[C@@H]1C[C@H]2O[C@@](C)([C@@H]1OC)n1c3ccccc3c3c4c(c5c6ccccc6n2c5c31)C(=O)NC4 [staurosporine]
localization of GFP and RNP complexes after apoptosis induction [3]: distributed over the complete cell | localization of the nucleoprotein after apoptosis induction [7]: distributed over the complete cell

COC(=O)CC[C@H](NC(=O)[C@H](CC(=O)OC)NC(=O)OCc1ccccc1)C(=O)N[C@H](C(=O)N[C@@H](CC(=O)OC)C(=O)CF)C(C)C [Z-DEVD-FMK]
migration of the RNP's out of the cell nucleus [2]: efficiently be inhibited | effect on virus protein expression [8]: no significant effect | caspase inhibition, measured by the cleavage of the caspase substrate PARP, versus virus titer inhibition [9]: precisely correlated | prevention of staurosporine-induced bleeding of GFP and RNP complexes out of the cell nucleus [3]: can be prevented | effect on the virus multiplication (titers of descendant viruses) [4]: did not have any effect | effect on virus multiplication when present in the first two hours after infection and removed thereafter [1]: no significant effects | inhibition of virus multiplication when added 4 hours after infection [1]: continued to effectively inhibit virus multiplication | reduction in the influenza virus titers [1]: approx. 60% | prevention of staurosporine-induced bleeding of NP out of the cell nucleus [7]: can be prevented | virus-induced activity of ERK [5]: substantially identical

CCC(=C/[C@H](C)C/C=C/C(C)=C/[C@@H](C)C(=O)[C@@H](C)[C@H](O)[C@@H](C)C/C(C)=C/C(=O)O)/C=C/[C@@H]1OC(=O)C=C[C@@H]1C [leptomycin B]
prevention of staurosporine-induced bleeding of NP out of the cell nucleus [7]: not

B1: procaspase-3 (protein, UniProt P42574 1-277, looked up)
pro-form: MENTENSVDSKSIKNLEPKIIHGSESMDSGISLDNSYKMDYPEMGLCIIINNKNFHKSTGMTSRSGTDVDAANLRETFRNLKYEVRNKNDLTREEIVELMRDVSKEDHSKRSSFVCVLLSHGEEGIIFGTNGPVDLKKITNFFRGDRCRSLTGKPKLFIIQACRGTELDCGIETDSGVDDDMACHKIPVEADFLYAYSTAPGYYSWRNSKDGSWFIQSLCAMLKQYADKLEFMHILTRVNRKVATEFESFSFDATFHAKKQIPCIVSMLTKELYFYH
modifications: pro-form
increase in the titers of descendant viruses [10]: 30 fold | virus multiplication in transfected cells [11]: increased virus multiplication
